According to patent US20050176691A1, “Combination therapy for the treatment of estrogen-sensitive disease” (priority 2000, published 2005):
Like-named read-outs stand apart in the source and are kept apart here.

Legend:
[1] = tested on: estrogen receptor / enzyme (primary endocrine mechanism); assay: Endocrine effect
[2] = Excretion characteristics; settings: in vivo
[3] = tested on: plasma protein; assay: Distribution: plasma protein binding; assay type: in vitro ADME
[4] = Absorption characteristics; settings: in vivo
[5] = tested on: primary metabolizing enzyme(s); assay: Metabolism characteristics; assay type: in vitro ADME
[6] = Other effects on ADME or PK (patient factors); settings: in vivo
[7] = Pharmacokinetic profile; assay type: in vivo
[8] = during combination therapy with tamoxifen; persisted during months; cited from earlier work

Which results are given for `CN(C)CCOc1ccc(/C(=C(/CCCl)c2ccccc2)c2ccccc2)cc1` [Toremifene, (Z)-2-[4-(4-chloro-1,2-diphenyl-1-butenyl)phenoxy]-N,N-dimethylethanamine]?
direct inhibition of primary mechanism by combination drug [1]: no; feedback stimulation on combination drug's primary mechanism [1]: yes; enterohepatic circulation [2]: yes; primary route of elimination [2]: fecal; enterohepatic circulation ([2]; listed as toremifene): subject to enterohepatic circulation; principal plasma binding protein(s) [3]: albumin; fraction unbound ([3]; plasma): < 0.005; Absorption: influenced by food [4]: no; Absorption: route [4]: oral; induction of primary metabolizing enzyme [5]: no; plasma levels affected by known inducers of cytochrome p-450 enzyme system [5]: yes; primary enzyme(s) of metabolism [5]: CYP3A4; primary metabolite active [5]: yes; significant pre-systemic metabolism [5]: no; effect of race of patient on ADME or PK [6]: unexpected; effect of sex of patient on ADME or PK [6]: no known effect; overall time to steady state ([7]; in vivo): 4-6 weeks; half-life ([7]; in vivo, read-out: distribution t1/2 (time) (converted)): 4 h; half-life ([7]; in vivo, read-out: elimination t1/2 (time) (converted)): 120 h; clearance ([7]; in vivo, read-out: total clearance (volume/unit time) (converted)): 83.3 mL/min; Tmax ([7]; plasma, oral): 3 h

With `N#Cc1ccc(C(c2ccc(C#N)cc2)n2cncn2)cc1` [letrozole, 4,4′-(1H-1,2,4-triazol-1-ylmethylene)bis-benzonitrile] as the molecule, how does the “mean reduction of plasma levels of letrozole vs single agent letrozole” value [8] read?
Its value is 37%.
